In patent US6914045B2, “Glycopeptide antibiotics” (Wyeth Holdings Corporation, priority 2001, dated 2005):
Values after ≈ are worked out from the molar mass of the structure shown.

How the values were obtained:
Assay in all cases: in vitro antibacterial evaluation, MIC by broth dilution
Assay type in all cases: cell-based
Streptococcus sp. = settings: broth dilution, 18 hours at 35° C.
How it was run: (§1)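 Broth dilution per NCCLS standard M7-A2 in Muller-Hinton II […], with an inoculum of 5×10^5 CFU/mL and antibiotic spanning 64-0.06 μg/mL. The MIC is the lowest concentration that inhibits growth of the organism.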

Enterococcus sp. = settings: broth dilution, 18 hours at 35° C.
How it was run: as §1

Escherichia coli = settings: 18 hours at 35° C., strain ATCC 25922
How it was run: as §1

Staphylococcus sp. = settings: broth dilution, 18 hours at 35° C.
How it was run: as §1

MIC Streptococcus agalactiae (GC 4564) (Streptococcus sp.; Streptococcus agalactiae (GC 4564)): 0.25 µg/mL (≈ 0.183 µM)
MIC Streptococcus pneumoniae (GC 4565) (Streptococcus sp.; Streptococcus pneumoniae (GC 4565)): <0.12 µg/mL
MIC Streptococcus pyogenes (ID-3187) (Streptococcus sp.; Streptococcus pyogenes (ID-3187)): 0.25 µg/mL (≈ 0.183 µM)
MIC Streptococcus agalactiae (GC 4564) (Streptococcus sp.; strain GC 4564): 0.25 µg/mL (≈ 0.183 µM)
MIC Streptococcus pneumoniae (GC 4565) (Streptococcus sp.; strain GC 4565): <0.12 µg/mL
MIC Streptococcus pyogenes (ID-3187) (Streptococcus sp.; strain ID-3187): 0.25 µg/mL (≈ 0.183 µM)
MIC Enterococcus avium (GC 4558) (Enterococcus sp.; Enterococcus avium (GC 4558)): 8 µg/mL (≈ 5.87 µM)
MIC Enterococcus faecalis (ATCC 29212) (Enterococcus sp.; Enterococcus faecalis (ATCC 29212)): 4 µg/mL (≈ 2.93 µM)
MIC Enterococcus faecalis (GC 2242) (Enterococcus sp.; Enterococcus faecalis (GC 2242)): 4 µg/mL (≈ 2.93 µM)
MIC Enterococcus faecalis (GC 4552) (Enterococcus sp.; Enterococcus faecalis (GC 4552)): 4 µg/mL (≈ 2.93 µM)
MIC Enterococcus faecalis (GC 4553) (Enterococcus sp.; Enterococcus faecalis (GC 4553)): 8 µg/mL (≈ 5.87 µM)
MIC Enterococcus faecalis (GC 4554) (Enterococcus sp.; Enterococcus faecalis (GC 4554)): 4 µg/mL (≈ 2.93 µM)
MIC Enterococcus faecium (GC 2243) (Enterococcus sp.; Enterococcus faecium (GC 2243)): 8 µg/mL (≈ 5.87 µM)
MIC Enterococcus faecium (GC 4556) (Enterococcus sp.; Enterococcus faecium (GC 4556)): 4 µg/mL (≈ 2.93 µM)
MIC Enterococcus faecium (GC 4557) (Enterococcus sp.; Enterococcus faecium (GC 4557)): 2 µg/mL (≈ 1.47 µM)
MIC Enterococcus faecalis (ATCC 29212) (Enterococcus sp.; strain ATCC 29212): 4 µg/mL (≈ 2.93 µM)
MIC Enterococcus faecalis (GC 2242) (Enterococcus sp.; strain GC 2242): 4 µg/mL (≈ 2.93 µM)
MIC Enterococcus faecium (GC 2243) (Enterococcus sp.; strain GC 2243): 8 µg/mL (≈ 5.87 µM)
MIC Enterococcus faecalis (GC 4552) (Enterococcus sp.; strain GC 4552): 4 µg/mL (≈ 2.93 µM)
MIC Enterococcus faecalis (GC 4553) (Enterococcus sp.; strain GC 4553): 8 µg/mL (≈ 5.87 µM)
MIC Enterococcus faecalis (GC 4554) (Enterococcus sp.; strain GC 4554): 4 µg/mL (≈ 2.93 µM)
MIC Enterococcus faecium (GC 4556) (Enterococcus sp.; strain GC 4556): 4 µg/mL (≈ 2.93 µM)
MIC Enterococcus faecium (GC 4557) (Enterococcus sp.; strain GC 4557): 2 µg/mL (≈ 1.47 µM)
MIC Enterococcus avium (GC 4558) (Enterococcus sp.; strain GC 4558): 8 µg/mL (≈ 5.87 µM)
MIC Escherichia coli (ATCC 25922) (Escherichia coli): 64 µg/mL (≈ 46.9 µM)
MIC Coagulase Negative Staphylococcus (GC 4547) (Staphylococcus sp.): 1 µg/mL (≈ 0.733 µM)
MIC Coagulase Negative Staphylococcus (GC 4548) (Staphylococcus sp.): 1 µg/mL (≈ 0.733 µM)
MIC Coagulase Negative Staphylococcus (GC 4549) (Staphylococcus sp.): 1 µg/mL (≈ 0.733 µM)
MIC Coagulase Negative Staphylococcus (GC 4551) (Staphylococcus sp.): 1 µg/mL (≈ 0.733 µM)
MIC Coagulase Negative Staphylococcus (ID-3941) (Staphylococcus sp.): 1 µg/mL (≈ 0.733 µM)
MIC Staphylococcus aureus (ATCC 29213) (Staphylococcus sp.): 1 µg/mL (≈ 0.733 µM)
MIC Staphylococcus aureus (GC 1131) (Staphylococcus sp.): 2 µg/mL (≈ 1.47 µM)
MIC Staphylococcus aureus (GC 4541) (Staphylococcus sp.): 2 µg/mL (≈ 1.47 µM)
MIC Staphylococcus aureus (GC 4542) (Staphylococcus sp.): 1 µg/mL (≈ 0.733 µM)
MIC Staphylococcus aureus (GC 4544) (Staphylococcus sp.): 2 µg/mL (≈ 1.47 µM)
MIC Staphylococcus aureus (GC 4545) (Staphylococcus sp.): 1 µg/mL (≈ 0.733 µM)
MIC Staphylococcus aureus-SMITH (GC 4543) (Staphylococcus sp.): 1 µg/mL (≈ 0.733 µM)
MIC Staphylococcus aureus (GC 1131) (Staphylococcus sp.; inoculum 5×10^5 CFU/mL, strain GC 1131): 2 µg/mL (≈ 1.47 µM)
MIC Staphylococcus aureus (ATCC 29213) (Staphylococcus sp.; strain ATCC 29213): 1 µg/mL (≈ 0.733 µM)
MIC Staphylococcus aureus (GC 4541) (Staphylococcus sp.; strain GC 4541): 2 µg/mL (≈ 1.47 µM)
MIC Staphylococcus aureus (GC 4542) (Staphylococcus sp.; strain GC 4542): 1 µg/mL (≈ 0.733 µM)
MIC Staphylococcus aureus (GC 4544) (Staphylococcus sp.; strain GC 4544): 2 µg/mL (≈ 1.47 µM)
MIC Staphylococcus aureus (GC 4545) (Staphylococcus sp.; strain GC 4545): 1 µg/mL (≈ 0.733 µM)
MIC Coagulase Negative Staphylococcus (GC 4547) (Staphylococcus sp.; strain GC 4547): 1 µg/mL (≈ 0.733 µM)
MIC Coagulase Negative Staphylococcus (GC 4548) (Staphylococcus sp.; strain GC 4548): 1 µg/mL (≈ 0.733 µM)
MIC Coagulase Negative Staphylococcus (GC 4549) (Staphylococcus sp.; strain GC 4549): 1 µg/mL (≈ 0.733 µM)
MIC Coagulase Negative Staphylococcus (GC 4551) (Staphylococcus sp.; strain GC 4551): 1 µg/mL (≈ 0.733 µM)
MIC Coagulase Negative Staphylococcus (ID-3941) (Staphylococcus sp.; strain ID-3941): 1 µg/mL (≈ 0.733 µM)
MIC Staphylococcus aureus-SMITH (GC 4543) (Staphylococcus sp.; strain SMITH GC 4543): 1 µg/mL (≈ 0.733 µM)
Compound: CC(C)CC1OCC2OC(OC3C(CO)OC(Oc4ccc(CC5NC(=O)C(C(C)c6ccccc6)NC(=O)CNC(=O)C(CO)NC(=O)C(C(O)C6CNC(=N)N6C6OC(CO)C(O)C(O)C6O)NC(=O)C(C(O)C6CNC(=N)N6)NC5=O)cc4)C(O)C3O)C(O)C(O)C2O1 (stereo not drawn) [Example 107, Cyclo[glycyl-β-methylphenylalanyl-O-[4-O-[4,6-O-(3-methylbutylidene)hexopyranosyl]-hexopyranosyl]tyrosyl-3-(2-iminoimidazolidin-4-yl)seryl-3-(3-hexopyranosyl-2-iminoimidazolidin-4-yl)serylseryl]]
MIC Staphylococcus haemolyticus (GC 4546) (Staphylococcus sp.): 1 µg/mL (≈ 0.733 µM)
MIC Staphylococcus haemolyticus (GC 4546) (Staphylococcus sp.; strain GC 4546): 1 µg/mL (≈ 0.733 µM)
